Laboratory results: patent publication US12371668B2, “Methods for tissue generation” (priority 2018, dated 2025)
Entries after “also recorded” stand apart in the source; their conditions may differ. Each block holds one compound with its values, some of them ahead of it.

Legend:
[1] = system: atrial tissues derived from Hes3 hESC-CM; experiment: Intracellular action potential recordings in atrial Biowires; type: cell-based, human
Protocol: (§1) Tissues were perfused with 35-37° C. Kreb's Solution (118 mM NaCl, 4.2 mM KCl, 1.2 mM KH2PO4, 1.2 mM MgSO4, 1.8 mM CaCl2, 23 mM NaHCO3, 2 mM Na-pyruvate and 20 mM glucose, equilibrated with 95% 02 and 5% CO2, pH 7.4) or DMEM medium. They were paced at twice the ET. The action potential was recorded with high impedance microelectrodes (60-90 MΩ) filled with 3M KCl, connected to an Axopatch 200B amplifier (Axon Instruments). Recordings were performed in current clamp mode at 2 kHz and signals were analyzed using the Clampfit 10 Data Analysis Module of the pCLAMP™ 10 Electrophysiology Data Acquisition & Analysis Software (Axon Instruments). The movement of the tissue was minimized by perfusing with 10 μM blebbistatin (Toronto Research Chemicals) for 20 min. The effect of various compounds on the action potential was assessed by preparing an appropriate dilution of the compound in Krebs's Solution or DMEM.

[2] = system: ventricular tissues derived from BJ1D iPSC-CM; experiment: Intracellular action potential recordings in ventricular Biowires; type: cell-based, human; settings: for responses on action potentials: ventricular Biowires, FIGS. 12E-12N
Protocol: as §1, with “Kreb's Solution (118 mM NaCl, 4.2 mM KCl, 1.2 mM KH2PO4, 1.2 mM MgSO4, 1.8 mM CaCl2, 23 mM NaHCO3, 2 mM Na-pyruvate and 20 mM glucose, equilibrated with 95% 02 and 5% CO2, pH 7.4) or DMEM medium.” left out

[3] = system: atrial end of heteropolar atrio-ventricular Biowires (Hes3 hESC); experiment: Calcium transients in atrioventricular Biowires, atrial end; type: cell-based, human
Protocol: To generate atrioventricular tissues, dissociated atrial cardiac cells and cardiac fibroblasts were mixed in a 10:1.5 cell number ratio. Dissociated ventricular cells and cardiac fibroblasts were mixed in a 10:1.5 cell number ratio. The mixed cells were pelleted and resuspended at a concentration of 5.75×10^7 cells/mL in collagen hydrogel. When seeding, cell-hydrogel mixture containing atrial CMs (1 μL) were seeded on one side of the Biowire II well first, followed by mixture containing ventricular CMs (1 μL) seeded on the other side. After seeding, tissues were cultured for 7 days to allow for remodeling and compaction around the POMaC wires. […]
(§2) To investigate the relative changes of intracellular calcium concentration, tissues were incubated with the calcium dye Fluo-4 NW (Thermo Fisher) for 30 min at 37° C. prior to testing. To obtain both calcium transients and contractility readouts consecutively and synchronously, the testing process was performed using both green light channel (λex=490 nm, λem=525 nm) and/or blue channel at 10× or 4× magnification. […] The ratio of peak tissue fluorescence intensity to baseline intensity, dF/F0 was calculated to determine the relative changes in intracellular calcium in the presence of the compound. For the consecutive force and calcium transient readouts, contractile measurements were extracted from the blue channel as described before. […]

[4] = system: atrial tissue derived from Hes3 hESC-CM; experiment: Force and calcium transient measurement in atrial Biowires; type: cell-based, human; settings: atrial preparations, increasing concentrations
Protocol: To investigate the contractile effects of various compounds on the tissues, a custom testing chamber was fabricated in a 6-well plate modified with an extraction/injection port connected to a 5 mL syringe, a pair of carbon electrodes (set 1 cm apart) with platinum wire lead attachments and a custom 3D-printed holder for a polystyrene chip with a single microwell. Prior to testing, the tissue was transferred to the custom testing chamber and placed in the environmental chamber on the microscope stage (37° C., 5% CO2), where it was allowed to equilibrate for 30 min in the presence of electrical field stimulation (1 Hz, at ET). […] After 10-15 min, videos in the blue channel were recorded. […] The videos were analyzed using the custom MatLab software, as indicated for the weekly FFR assessments.
as §2, with “testing.” for “testing. To obtain both calcium transients and contractility readouts consecutively and synchronously, the testing process was performed using both green light channel (λex=490 nm, λem=525 nm) and/or blue channel at 10× or 4× magnification.”

[5] = system: ventricular tissue derived from BJ1D iPSC-CM; experiment: Force and calcium transient measurement in ventricular Biowires; type: cell-based, human
Protocol: To investigate the contractile effects of various compounds on the tissues, a custom testing chamber was fabricated in a 6-well plate modified with an extraction/injection port connected to a 5 mL syringe, a pair of carbon electrodes (set 1 cm apart) with platinum wire lead attachments and a custom 3D-printed holder for a polystyrene chip with a single microwell. Prior to testing, the tissue was transferred to the custom testing chamber and placed in the environmental chamber on the microscope stage (37° C., 5% CO2), where it was allowed to equilibrate for 30 min in the presence of electrical field stimulation (1 Hz, at ET). A bright field video of the tissue was taken before testing to obtain all the necessary measurements for the force calculation. For testing, the voltage was increased to 10% above the ET, and videos were taken of one polymer wire (10× objective). Prior to the test compound injection, media were extracted and injected through the port twice at 10 min intervals to pre-condition the tissue to the testing process. […] For compound testing, ⅓^rd of the media was extracted from the chamber, the compound was added to the extracted media and then injected back into the testing chamber. After 10-15 min, videos in the blue channel were recorded. The procedure was repeated for sequential drug dosages. The videos were analyzed using the custom MatLab software, as indicated for the weekly FFR assessments.
To investigate the relative changes of intracellular calcium concentration, tissues were incubated with the calcium dye Fluo-4 NW (Thermo Fisher) for 30 min at 37° C. prior to testing. […] The ratio of peak tissue fluorescence intensity to baseline intensity, dF/F0 was calculated to determine the relative changes in intracellular calcium in the presence of the compound. For the consecutive force and calcium transient readouts, contractile measurements were extracted from the blue channel as described before. For the synchronous readouts, the contractile measurements were extracted from the green channel videos using modified version of the ImageJ SpotTracker plugin. […]

[6] = Long-term absorption test, PDMS chips; type: physicochemical; settings: 1 wk incubation then washout for 2 hours
Protocol: (§3) For the long-term absorption test, polystyrene strips containing microwells and POMaC wires, with and without the adhesive, were cut into chips (9 mm×9 mm×1 mm) containing a single microwell. Chips of the same geometry were also made using PDMS. The polystyrene and PDMS chips were incubated in 1 mL Rhodamine B (1 μM; Sigma-Aldrich) in a 24 well-plate at 37° C. for up to 1 wk. Tissue culture treated 24 well-plates were incubated with the dye in the absence of any chips as a control. At 6 h, 24 h, 48 h, and 1 wk, 100 μL of the dye solution was transferred to a 96-well plate and the fluorescence was read using a SpectraMax i3 plate reader (Molecular Devices; λex=540 nm, λem=625 nm), (n=3). Additionally, fluorescent images of the chips were taken in the absence of treatment, after 1 wk of dye incubation, and after 2 h of washing following 1 wk of dye incubation.

[7] = Long-term absorption test, Biowire chips; type: physicochemical
Protocol: as §3

[8] = system: ventricular portions of heteropolar Biowires (Hes3 hESC); experiment: Optical mapping of impulse propagation in atrioventricular Biowires, ventricular region; type: cell-based, human; settings: 1 μM, listed as Ranolazine
Protocol: (§4) To generate atrioventricular tissues, dissociated atrial cardiac cells and cardiac fibroblasts were mixed in a 10:1.5 cell number ratio. Dissociated ventricular cells and cardiac fibroblasts were mixed in a 10:1.5 cell number ratio. The mixed cells were pelleted and resuspended at a concentration of 5.75×10^7 cells/mL in collagen hydrogel. When seeding, cell-hydrogel mixture containing atrial CMs (1 μL) were seeded on one side of the Biowire II well first, followed by mixture containing ventricular CMs (1 μL) seeded on the other side. After seeding, tissues were cultured for 7 days to allow for remodeling and compaction around the POMaC wires.
(§5) For atrioventricular preparations, electrical stimulation started at 2 Hz on day 7 and the protocol of 1 Hz weekly step-up was used until the frequency reached 6 Hz. If average MCR exceeded 4 Hz after one week of 2 Hz stimulation, or exceeded 5 Hz after one week of 3 Hz stimulation, stimulation frequency could be changed directly from 2 Hz to 4 Hz or 3 Hz to 5 Hz to accelerate the process. […]
(§6) Tissues were perfused with 5 μM voltage sensitive dye, Di-4-ANEPPS (Invitrogen), in Kreb's Solution at 35-37° C. for 20 min. Dye fluorescence was recorded on an MVX-10 Olympus fluorescence microscope (Olympus Corporation) equipped with a charged coupled device (CCD) (Cascade 128, Photometrics). […]

[9] = system: atrial region of heteropolar Biowires (Hes3 hESC); experiment: Optical mapping of impulse propagation in atrioventricular Biowires, atrial region; type: cell-based, human; settings: 1 μM
Protocol: as §4, §5, §6

[10] = system: ventricular Biowires created from BJ1D iPSCs and HES3 ESCs; experiment: Dynamic force recordings of ventricular Biowires under stimulation; type: cell-based, human; settings: FIG. 2G
Protocol: Blue channel image sequences were analyzed using a custom MatLab code that traced the maximum deflection of the POMaC wire. Average tissue width (diameter) and width of the tissue on the polymer wire (Tw) were measured from still frames of the 4× bright field video of the tissue in the relaxed position (FIGS. 8C-8D). Total (at peak contraction) and passive (at rest) POMaC wire deflections were converted to force measurements (μN) using the force calibration curves described in the previous section. The final readouts for the total and passive tension of tissue were then interpolated according to the Tw and custom tip sizes. The active force was calculated as the difference between the total and passive tension (FIG. 2C). The custom MatLab code was used to calculate the passive tension, active force, contraction and relaxation duration, and upstroke and relaxation velocity. To investigate the contractile effects of various compounds on the tissues, a custom testing chamber was fabricated in a 6-well plate modified with an extraction/injection port connected to a 5 mL syringe, a pair of carbon electrodes (set 1 cm apart) with platinum wire lead attachments and a custom 3D-printed holder for a polystyrene chip with a single microwell. Prior to testing, the tissue was transferred to the custom testing chamber and placed in the environmental chamber on the microscope stage (37° C., 5% CO2), where it was allowed to equilibrate for 30 min in the presence of electrical field stimulation (1 Hz, at ET). A bright field video of the tissue was taken before testing to obtain all the necessary measurements for the force calculation. For testing, the voltage was increased to 10% above the ET, and videos were taken of one polymer wire (10× objective). Prior to the test compound injection, media were extracted and injected through the port twice at 10 min intervals to pre-condition the tissue to the testing process. Compounds were diluted in media at concentrations 1000-fold higher than the desired final concentration. For compound testing, ⅓^rd of the media was extracted from the chamber, the compound was added to the extracted media and then injected back into the testing chamber. After 10-15 min, videos in the blue channel were recorded. The procedure was repeated for sequential drug dosages. The videos were analyzed using the custom MatLab software, as indicated for the weekly FFR assessments.

[11] = atrial Biowires, low doses (25 μM)

Compound: C[N+](C)(C)CCOC(N)=O [carbachol]
APDs (action potential durations) ([1]; atrial Biowires): abbreviated APDs; also recorded: shortened atrial APDs only
APDs (action potential durations) ([2]; ventricular tissues): without affecting these parameters

Compound: Nc1ccncc1 [4AP, 4-aminopyridine]
APD30 [1, 11]: prolonged
action potential amplitudes [1, 11]: increased
AP duration ([1]; atrial tissues, very low concentrations (<50 μM)): prolonged
APD ([2]; ventricular tissues, higher doses): did prolong APD
action potential amplitudes and APD30 ([2]; ventricular tissues, low doses (25 μM)): without measurable effects

Compound: NCCc1c[nH]c2ccc(O)cc12 [serotonin]
Ca2+ transients [3]: increased; also recorded: positive inotropic effect

Compound: C/C=C(/C)C(=O)O[C@H]1C(C)=C2[C@H]([C@@H]1OC(=O)CCCCCCC)[C@@](C)(OC(C)=O)C[C@H](OC(=O)CCC)[C@@]1(O)[C@H]2OC(=O)[C@@]1(C)O [thapsigargin]
force and Ca′ transient amplitudes [4]: dose-dependently decreased
potency in ventricular versus atrial preparations ([5]; decrease of force and Ca′ transient amplitudes): higher potency in ventricle
time-to-peak and decay rates of both force and Ca2+ ([5]; ventricular Biowires, low pacing rates): prolonged
force and Ca′ transient amplitudes ([5]; ventricular preparations, increasing concentrations): dose-dependently decreased

Compound: COc1ccc(CCN(C)CCCC(C#N)(c2ccc(OC)c(OC)c2)C(C)C)cc1OC (centres unmarked) [verapamil]
responses on action potentials [2]: predictable responses

fluorescence in chip after washout [6]: remained widespread
fluorescence levels in solution versus PDMS chips ([7]; 1 μM dye, 37° C., incubation 24 hours and longer): remained higher than in PDMS chips
fluorescence in chip after washout ([7]; 1 wk incubation then washout for 2 hours): undetectable
levels versus tissue plastic well controls ([7]; after 6 hours): not significantly different
Compound: CCN(CC)c1ccc2c(-c3ccccc3C(=O)O)c3ccc(=[N+](CC)CC)cc-3oc2c1.[Cl-] [Rhodamine B]

Compound: CN(CCOc1ccc(NS(C)(=O)=O)cc1)CCc1ccc(NS(C)(=O)=O)cc1 [dofetilide]
responses on action potentials [2]: predictable responses

Compound: COc1ccccc1OCC(O)CN1CCN(CC(=O)Nc2c(C)cccc2C)CC1 (centres unmarked) [ranolazine]
conduction velocity [8]: without affecting
conduction velocity [9]: significantly slowed down
conduction velocity ([9]; listed as Ranolazine): decreased conduction velocity

Compound: CC(C)NCC(O)c1ccc(O)c(O)c1 (centres unmarked) [isoproterenol]
changes in the active forces and beat patterns [10]: increases contractility

Compound: Cc1[nH]c(=O)c(C#N)cc1-c1ccncc1 [milrinone]
changes in the active forces and beat patterns [10]: enhances contractility

Compound: COc1ccc([C@@H]2Sc3ccccc3N(CCN(C)C)C(=O)[C@@H]2OC(C)=O)cc1 [diltiazem]
changes in the active forces and beat patterns [10]: produces negative inotropic effects

Compound: Cc1cccc(CCN2CCC(C(=O)c3ccc(NS(C)(=O)=O)cc3)CC2)n1 [E-4031]
changes in the active forces and beat patterns [10]: promotes spontaneous irregular beating patterns consistent with arrhythmias

Compound: CCN(CC)CC(=O)Nc1c(C)cccc1C [lidocaine]
changes in the active forces and beat patterns [10]: inhibits tissue electrical excitability
